One block for each molecule: values may come before it.
Assays:
[1] = pharmacokinetic study of semaglutide mucosal suction patch in beagle dogs; assay type: in vivo; conditions: patch with 9 mg semaglutide, 1.2 mg PVA, 11.7 mg NaTaC
Procedure: Briefly, an aliquot of 900 μL dog plasma sample was mixed with 10 μL internal standard (Goserelin; 25 ng/mL) and 300 μL 4% H3PO4 acidified water into 1.5 mL Eppendorf tubes. The plasma sample was then extracted using Oasis™ WAX solid-phase extraction cartridges.
The drug plasma concentration was evaluated using an LC-MS/MS method as described in Example 11.

[2] = dog, in vivo
Procedure: As a control formulation, enteric-coated (Eudragit® L100-55, Essen, Germany) capsules containing commercial Minirin® drug tablets (6 pieces containing 1.2 mg desmopressin in total) was given orally to the dog.
A 3D printed clamp containing a cavity for the suction patch containing 1.2 mg desmopressin, 1.2 mg PVA, and 5.7 mg NaTaC was attached to the dog's mucosa, ensuring similar conditions (i.e., enclosed environment, close contact to the mucosa, same sample preparation and loading) as the applied suction patch, but […] and without negative pressure and the resulting tissue deformation.
The dogs were anesthetized for the duration of the experiment (3 h). […] Blood samples were collected in K2EDTA tubes immediately followed by centrifugation at 1700 G for 10 min at 4° C. Subsequently, the plasma was stored in clear polypropylene vials at −80° C. until further analysis. The drug plasma concentration was evaluated using LC-MS/MS method. Briefly, an aliquot of 900 μL dog plasma sample was mixed with 10 μL internal standard (Goserelin; 25 ng/mL) and 300 μL 4% H3PO4 acidified water into 1.5 mL Eppendorf tubes. The plasma sample was then extracted using Oasis™ WAX solid-phase extraction cartridges. […] Samples were analyzed in TOF-MRM mode with a quantification limit of […]. […]

[3] = system: porcine buccal mucosa; assay: ex vivo effect of hypobaric pressure on diffusion of marker molecule in porcine buccal mucosa; assay type: in vitro ADME; conditions: 54 μg Cy5, 2.1 mg C10, 1.2 mg PVA, pressure set to 30 kPa, 37° C., 3 h
Procedure: The device could continuously monitor and control the pressure inside the patch to a constant value, e.g., 30 kPa. For the application, the buccal tissue was prepared as described above and placed in a 6-well plate that is filled with DMEM buffer. […] Subsequently, the pressure was set by the reduction valve to 30 kPa and left in the 37° C. incubators for 3 h. Afterwards, the vacuum pump was turned off and the mucosal suction patches were detached. The tissue specimen was processed as described before for fluorescent imaging. The intensity of each image was converted to the equivalent of 150 ms exposure time to allow the comparability. When plotting the fluorescent intensity-distance profile, the absolute intensity was utilized instead of the normalized in order to compare the pressure-related permeation enhancing effects among different samples.

[4] = oral formulation, even in the presence of permeation enhancers; cited from earlier work
[5] = system: porcine buccal mucosa; assay: ex vivo permeation of surrogates through porcine buccal mucosa with mucosal suction patch; assay type: in vitro ADME; conditions: patch with surrogate, 1.2 mg PVA, 5.7 mg NaTaC, 3 h
Procedure: Specimen were permeabilized with a 0.5% Trition™ X100 PBS buffered solution for 15 min, washed for 3 min in PBS and incubated with a PBS buffered solution of 0.1% iFluor™ 488-conjugated phalloidin (F-Actin stain) and 0.1% Hoechst 33342 (Nucleous stain) for 30 min.
Fluorescence images were obtained with a widefield microscope (Leica DMI 6000) at 20× magnification in the tile scan mode and merged to a single image. The specimen was excited at 590-650 nm and the emission filtered from 662-738 nm. To evaluate the penetration depth of the surrogate, images were processed as grayscale with Fiji-ImageJ™ software. Line profiles of the grayscale intensity were obtained by drawing multiple straight lines vertical to the surface of the mucosa lining. The obtained intensity-distance profiles were transferred to Microsoft Excel™ and MatLab™ for further processing. The autofluorescence was first corrected by subtracting the averaged baseline intensity multiplied by 3 times its standard deviation obtained from a lower laying region of the tissue. The maximum intensity was set to 100% and the corresponding distance value was set to zero to normalize the drug distribution profile. […]
The molecular weight range of administrable drugs was evaluated ex-vivo on porcine buccal mucosa tissue by applying drug surrogates with different molecular weights. […]

Molecule: CC[C@H](C)[C@H](NC(=O)[C@H](Cc1ccccc1)NC(=O)[C@H](CCC(=O)O)NC(=O)[C@H](CCCCNC(=O)COCCOCCNC(=O)COCCOCCNC(=O)CC[C@H](NC(=O)CCCCCCCCCCCCCCCCC(=O)O)C(=O)O)NC(=O)[C@H](C)NC(=O)[C@H](C)NC(=O)[C@H](CCC(N)=O)NC(=O)CNC(=O)[C@H](CCC(=O)O)NC(=O)[C@H](CC(C)C)NC(=O)[C@H](Cc1ccc(O)cc1)NC(=O)[C@H](CO)NC(=O)[C@H](CO)NC(=O)[C@@H](NC(=O)[C@H](CC(=O)O)NC(=O)[C@H](CO)NC(=O)[C@@H](NC(=O)[C@H](Cc1ccccc1)NC(=O)[C@@H](NC(=O)CNC(=O)[C@H](CCC(=O)O)NC(=O)C(C)(C)NC(=O)[C@@H](N)Cc1cnc[nH]1)[C@@H](C)O)[C@@H](C)O)C(C)C)C(=O)N[C@@H](C)C(=O)N[C@@H](Cc1c[nH]c2ccccc12)C(=O)N[C@@H](CC(C)C)C(=O)N[C@H](C(=O)N[C@@H](CCCNC(=N)N)C(=O)NCC(=O)N[C@@H](CCCNC(=N)N)C(=O)NCC(=O)O)C(C)C [semaglutide]
plasma concentrations [1]: therapeutic relevant plasma concentrations

bioavailability higher than commercial tablets [2]: 35%
Molecule: NC(=O)CC[C@@H]1NC(=O)[C@H](Cc2ccccc2)NC(=O)[C@H](Cc2ccc(O)cc2)NC(=O)CCSSC[C@@H](C(=O)N2CCC[C@H]2C(=O)N[C@H](CCCN=C(N)N)C(=O)NCC(N)=O)NC(=O)[C@H](CC(N)=O)NC1=O [desmopressin]

effect of negative pressure on drug permeation [3]: effectively enhanced the drug permeation
Molecule: Cy5

Molecule: octreotride
oral bioavailability [4]: 0.5-1%

B1: Alexa647-Ovalbumin: Alexa647 dye linked to ovalbumin (≈5.5 nm, 45 kDa) (conjugate, UniProt P01012 2-386, looked up)
Ovalbumin: GSIGAASMEFCFDVFKELKVHHANENIFYCPIAIMSALAMVYLGAKDSTRTQINKVVRFDKLPGFGDSIEAQCGTSVNVHSSLRDILNQITKPNDVYSFSLASRLYAEERYPILPEYLQCVKELYRGGLEPINFQTAADQARELINSWVESQTNGIIRNVLQPSSVDSQTAMVLVNAIVFKGLWEKAFKDEDTQAMPFRVTEQESKPVQMMYQIGLFRVASMASEKMKILELPFASGTMSMLVLLPDEVSGLEQLESIINFEKLTEWTSSNVMEERKIKVYLPRMKMEEKYNLTSVLMAMGITDVFSSSANLSGISSAESLKISQAVHAAHAEINEAGREVVGSAEAGVDAASVSEEFRADHPFLFCIKHIATNAVLFFGRCVSP
modifications: Alexa647 dye
crossing of the mucosal epithelium [5]: reach deep inside
